One data set has as its target BACE1. The note with it: cited from earlier work.
The target in another data set is T1, Electric eel AChE (Electrophorus electricus, UniProt O42275).
T1 construct: purchased Sigma-Aldrich Co
Put plainly: In vitro cholinesterase enzyme assay (Ellman), AChE. Type of data set: biochemical. From the text: BACE1 (human recombinant β-secretase) ([…]) and the BACE1 FRET (fluorescence resonance energy transfer) assay kit Red were purchased from ThermoFisher Scientific (P2985; Waltham, MA, USA). […] For the cell culture experiment, Dulbecco’s modified Eagle’s medium (DMEM), Opti-MEM, fetal bovine serum (FBS), and penicillin/streptomycin were obtained from Capricorn Scientific (Ebsdorfergrund, Germany). β-secretase inhibitor III (β-SI) was purchased from Calbiochem (Darmstadt, Germany). The protease inhibitor mixture (a mixture of AEBSF, pepstatin A, E-64, bestain, leupeptin, and aprotinin) was purchased from Sigma-Aldrich (St. Louis, MO, USA). Enzyme-linked immunosorbent assay (ELISA) kits for Aβ40 and Aβ42 were obtained from IBL (Kunma, Japan). All chemicals and solvents used were reagent grade, purchased from commercial sources, and used as received.
The inhibitory activities of pterosin derivatives against cholinesterases were measured using the method developed by Ellman et al.[32]. The reaction mixture contained 140 μL of sodium phosphate buffer (pH 8.0), 20 μL of test sample solution (final concentration of the compound 100 μM), and 20 μL of AChE or BChE solution, mixed and incubated for 15 min at room temperature. […] The reactions were initiated following the addition of 10 μL of DTNB and 10 μL of acetyl thiocholine iodide for the AChE assay or butyryl thiocholine chloride for the BChE assay in 96-well microplates, which were incubated for 15 min.

A further data set is described as follows: PAMPA-BBB, literature. The note with it: from log BB = 0.612 × log Pe + 3.206 (ref 49). It is filed as in vitro ADME.
For data set [1] the following is noted: pharmacokinetic descriptor of the brain ref 53; cited from earlier work.
Another data set has as its system dementia animal models. The note with it: 5 mg/kg i.p. ref 53; cited from earlier work.
Another data set has as its system AChE. The note with it: cited from earlier work.
A further data set relates to BChE. On the set-up: method as in PMID 18274286. Conditions: cited from earlier work.
Details of data set [2]: method as in PMID 23565574. Conditions: PAMPA-BBB ref 49; cited from earlier work.
For data set [3], the system named is aged triple transgenic mouse models of AD (3xTg-AD). Conditions: 25 mg/kg i.p. every 48 h for 3 months, mice 21–24 months old ref 48; cited from earlier work.
A further data set relates to mouse models of diabetes. On the set-up: method as in PMID 23069626. The note with it: cited from earlier work.
The subject of data set [4] is mouse model of osteoarthritis. On the set-up: method as in PMID 27009967. Conditions: 15 μL of 900 μM intra-articular, three times per week, 8–13 weeks ref 28; cited from earlier work.
The mark [5] stands for this setting: oral 100 mg/kg/day for 4 weeks ref 29, 30.

T1 sequence (O42275 24-633): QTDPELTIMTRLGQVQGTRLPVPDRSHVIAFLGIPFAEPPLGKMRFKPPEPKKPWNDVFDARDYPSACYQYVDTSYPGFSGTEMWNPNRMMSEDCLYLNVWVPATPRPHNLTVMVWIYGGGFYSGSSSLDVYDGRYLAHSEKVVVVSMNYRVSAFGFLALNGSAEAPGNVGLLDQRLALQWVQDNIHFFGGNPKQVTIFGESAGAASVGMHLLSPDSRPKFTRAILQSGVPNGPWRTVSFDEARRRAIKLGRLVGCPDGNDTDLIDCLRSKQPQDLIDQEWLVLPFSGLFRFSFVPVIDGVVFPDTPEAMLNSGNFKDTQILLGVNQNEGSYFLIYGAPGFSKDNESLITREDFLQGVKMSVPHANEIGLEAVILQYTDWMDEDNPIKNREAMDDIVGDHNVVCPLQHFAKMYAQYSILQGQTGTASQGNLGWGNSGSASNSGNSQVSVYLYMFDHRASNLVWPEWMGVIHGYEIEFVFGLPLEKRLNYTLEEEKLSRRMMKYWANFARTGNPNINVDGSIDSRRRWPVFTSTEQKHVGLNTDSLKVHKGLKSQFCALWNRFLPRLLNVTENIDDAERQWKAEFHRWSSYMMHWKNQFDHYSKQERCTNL

For the compound `CC#Cc1cncc(-c2ccc3c(c2)[C@@]2(N=C(C)C(N)=N2)[C@]2(CC[C@H](OC)CC2)C3)c1` [AZD3293], the Ki at BACE1 is 0.4 nM.

`COc1ccc2cc3[n+](cc2c1OC)CCc1cc2c(cc1-3)OCO2` [Berberine, berberine] returned an IC50 against Electric eel AChE of 390 ± 10 nM. In addition, the “log Pe corresponding to log BB” value in “PAMPA-BBB, literature” is −5.8. In addition, the “log BB” value in data set [1] is listed as −0.35. Further, the BACE1-inhibitory activity result with BACE1 is “lacks”. For the same compound, the Cognitive effect result in the data set with dementia animal models was “procognitive and antiamnestic properties”.

Turning to `O=c1c(O)c(-c2ccc(O)c(O)c2)oc2cc(O)cc(O)c12` [Quercetin, quercetin], the IC50 with AChE was […]. For the same compound, the “Influence on BChE activity” value in the data set with BChE is on record as “negligible influence”. Further, the “log Pe” value in data set [2] is “approximately −7”. Further, in [3], the “Effect on AD pathology” value was “effectively ameliorated AD pathology and tauopathy”.

Regarding `Cc1cc2c(c(C)c1CCO)C(=O)C(C)(CO)C2` (stereo not drawn) [pterosin A], the Oral bioavailability result in the data set on mouse models of diabetes (diabetes animal experiment ref 29, 30) is listed as “good oral bioavailability”. Further, in the data set on mouse models of diabetes (setting [5]), the Adverse effects result is listed as “no significant adverse effects”; the “Effect on glucose intolerance and insulin resistance” value is “effectively improving glucose intolerance and insulin resistance”.

On to `Cc1cc2c(c(C)c1CCO)C(=O)[C@H](C)C2` [pterosin B], for which, in [4], the Adverse effects result is reported as “without adverse effects” and the Effect on osteoarthritis result is “ameliorating osteoarthritis”.

Source of the values: paper PMC6372667 (Experimental & Molecular Medicine, 2019).
